Read-outs that look alike come from different tables or passages of the source.
How the values were obtained:
[1] = pH 7.4, cited from earlier work
[2] = cited from earlier work
[3] = test system: Colo320; design: method as in PMID 32500882; conditions: cited from earlier work; for IC50: 72 h exposure; for Selectivity ratio IC50 (Colo205)/IC50 (Colo320): calculated from IC50 values taken from ref 12
[4] = target: T1, HSA site II (Homo sapiens, UniProt P02768); design: method as in PMID 32500882; conditions: cited from earlier work
T1 construct: purchased Sigma-Aldrich (Darmstadt, Germany) A8763

[5] = design: method as in earlier work; conditions: pH 7.40, cited from earlier work
[6] = target: T2, HSA site I (Trp-214) (Homo sapiens, UniProt P02768); design: method as in PMID 32500882; conditions: cited from earlier work
T2 construct: purchased Sigma-Aldrich (Darmstadt, Germany) A8763

[7] = test system: Colo205; design: method as in PMID 32500882; conditions: 72 h exposure; cited from earlier work
[8] = test system: MES-SA/Dx5; assay: In vitro cytotoxicity, MES-SA/Dx5 cells (fluorescent protein readout); type: cell-based, human
Text: (§1) Cell lines: all cell culture reagents were obtained from Sigma-Aldrich; plasticware was purchased from Sarstedt (Nümbrecht, Germany); Human colon Colo205 (chemo-sensitive, ATCC-CCL-222) and Colo320 (Pgp/MDR1-expressing, doxorubicin-resistant, ATCC-CCL-220.1) adenocarcinoma cell lines were purchased from LGC Promochem, Teddington, UK; MES-SA and MES-SA/Dx5 uterine sarcoma cell lines were obtained from ATCC, where they were characterized by DNA fingerprinting. The expression of the Pgp efflux pump of MES-SA/Dx5 was proven by Western blot analysis in our former report, and was also reported for the Colo320 cells. The MES-SA and MES-SA/Dx5 cells used in this study were previously engineered to express the fluorescent proteins mCherry and eGFP, respectively, by lentiviral transduction.
(§2) MES-SA cell lines were maintained in DMEM, supplemented with 10% fetal bovine serum, 5 mmol/L glutamine, and 50 units/mL penicillin and streptomycin. Cells were tested and resulted negative for mycoplasma contamination with the MycoAlert mycoplasma detection Kit (Lonza Group, Basel, Switzerland). One week prior to the cytotoxicity assays, Dx5 eGFP cells were selected in 500 nM doxorubicin for one passage to ensure the overexpression of P-glycoprotein.
(§3) Cytotoxicity assays: The tested compounds were dissolved in PBS buffer to prepare 5 mM stock solutions, which were diluted in complete culture medium.
(§4) In the case of the MES-SA and MES-SA/Dx5 cells, cell suspensions of the fluorescent cell lines were pre-mixed in a 1:1 ratio and seeded in 20 µL medium in a density of 2500 cells/well (1250 cells/well each) in a 384-well plate. After an overnight incubation, a serial dilution of the compounds was added to the plate in a final volume of 60 µL. The P-gp inhibitor tariquidar was added to the cells 15 min prior to the test compounds. After 144 h of incubation, plates were measured for the fluorescent intensity of mCherry (EX/EM: 585 nm/610 nm) and eGFP (EX/EM: 485 nm/510 nm). Cell seeding, aspiration of medium, and addition of drugs were performed by a Hamilton StarLet automated liquid handling robot.
(§5) Inhibition of the cell growth (expressed as IC50: inhibitory concentration that reduces by 50% the growth of the cells exposed to the tested compounds) was determined from the sigmoid curve where 100 − ((ODsample − ODmedium control)/(ODcell control − ODmedium control)) × 100 values were plotted against the logarithm of compound concentrations. Curves for the data obtained on Colo205 and Colo320 cells were fitted by GraphPad Prism software (2021, Graphpad Software, version 7.00, San Diego, CA, USA) using the sigmoidal dose–response model (comparing variable and fixed slopes). From the MES-SA cell data, the IC50 values were calculated by our custom program, written by J. Sessler in C#. The p values were calculated by Student’s t-test. The IC50 values were always obtained from at least three independent experiments.

[9] = test system: MES-SA; assay: In vitro cytotoxicity, MES-SA cells (fluorescent protein readout); type: cell-based, human; conditions: 144 h exposure
Text: as §1, §2, §3, §4, §5

[10] = Aqueous solubility at physiological pH (S7.4); type: physicochemical; conditions: pH 7.4
[11] = Proton dissociation constants (pKa) of the ligand by pH-potentiometric, UV-vis and 1H NMR titrations; type: physicochemical; conditions: pH 7.4
Protocol: Characterization of the protonation/deprotonation equilibrium processes of a bioactive molecule is important to reveal its actual chemical form and charge at a given pH. The proton dissociation constant (Ka) is a key physico-chemical parameter since it has an impact on many biopharmaceutical characteristics such as lipophilicity, water solubility, and albumin binding, which in turn directly influences pharmacokinetics. The pKa values of the protonated HQNO2-L-Pro were determined by pH-potentiometric, UV-vis (Figure 1a), and ^1H NMR spectroscopic titrations (Table 1).
The pH-potentiometric measurements were carried out at 25.0 ± 0.1 °C in water in the pH range between 2.0 and 11.5 at a constant ionic strength of 0.2 M KNO3. The titrations were performed in a carbonate-free KOH solution (0.20 or 0.10 M). The exact concentrations of HNO3, HCl, and KOH solutions were always determined by pH-potentiometric titrations. An Orion 710A pH-meter equipped with a Metrohm combined electrode (type 6.0234.100) and a Metrohm 665 Dosimat burette were used for the measurements. […] The average water ionization constant (pKw) was determined as 13.76 ± 0.01, which is in good agreement with the literature data. In the case of the titrations in 30% (v/v) DMSO/H2O, the calibration of the pH-potentiometric system was conducted as in our former works. Samples were degassed by bubbling purified argon through them for about 10 min prior to the measurements, and the inert gas was also passed over the solutions during the titrations. Stoichiometry of the species and their equilibrium constants were obtained similarly to that performed in our previous works, with the use of computer program Hyperquad2013 [50].
An Agilent Cary 8454 diode array spectrophotometer (Santa Clara, CA, USA) was used to obtain UV-vis spectra in the wavelength range 200–1000 nm, while spectra were recorded for the Fe(II)-containing samples using an Avantes (Avantes B.V., Apeldoorn, The Nederlands) AvaSpec-ULS2048CL-EVO spectrometer with an AvaLight-DHc light source and FDP-7UVIR200-2-VAR transmission dip probe. The titrations for the Fe(II)-containing samples were performed in a laboratory glove box (GP(Campus), Jacomex) (O2 content ≤ 1 ppm). The path length (ℓ) was 1 cm in most cases (the actual ℓ is always indicated in the legends of the figures). The concentrations of the ligands and complexes were between 40 and 200 µM, and 0.2 M KNO3 for the organometallic complexes or 0.1 M KCl for the Fe(II/III), Cu(II), and Zn(II) complexes were used to adjust the constant ionic strength. For HSA containing samples, complex concentrations were 50 µM, and 0.5, and 2 equiv. biomolecules were added for kinetic studies, respectively. For HSA model containing samples, complex concentrations were 50 µM, and the model concentrations were 0–150 µM and 0–500 µM, respectively, and the pH was 7.4 (PBS’). Spectra were always background and baseline corrected. The computer program HypSpec was used to obtain stability constants. Hydrolysis constants of the Fe(III), Fe(II), RuCym, and RhCp* species were included in the speciation models (see Table S4 with the data taken from References).
The Bruker Avance III HD Ascend 500 Plus instrument (Billerica, MA, USA) was used for NMR studies. ^1H NMR spectroscopic measurements were carried out with a WATERGATE water suppression pulse scheme in the presence of 10% (v/v) D2O/H2O in most cases. DSS internal standard was added to samples to obtain reference peaks. ^1H NMR titrations were carried out for the ligand alone, and for the organometallic complexes in the presence of 0.2 M KNO3. With the AHA and FHA model peptides, the measurements were performed at pH 7.4 (PBS’) at 0.5 or 1 mM metal complex concentrations, and 1:1, 1:2 or 2:1 peptide-to-metal complex ratios were applied. NMR titrations were also performed for the Zn(II)-ligand systems using 0.1 M KCl ionic strength. […]

[12] = design: method as in PMID 32500882; conditions: cited from earlier work

T1 sequence (P02768 25-609): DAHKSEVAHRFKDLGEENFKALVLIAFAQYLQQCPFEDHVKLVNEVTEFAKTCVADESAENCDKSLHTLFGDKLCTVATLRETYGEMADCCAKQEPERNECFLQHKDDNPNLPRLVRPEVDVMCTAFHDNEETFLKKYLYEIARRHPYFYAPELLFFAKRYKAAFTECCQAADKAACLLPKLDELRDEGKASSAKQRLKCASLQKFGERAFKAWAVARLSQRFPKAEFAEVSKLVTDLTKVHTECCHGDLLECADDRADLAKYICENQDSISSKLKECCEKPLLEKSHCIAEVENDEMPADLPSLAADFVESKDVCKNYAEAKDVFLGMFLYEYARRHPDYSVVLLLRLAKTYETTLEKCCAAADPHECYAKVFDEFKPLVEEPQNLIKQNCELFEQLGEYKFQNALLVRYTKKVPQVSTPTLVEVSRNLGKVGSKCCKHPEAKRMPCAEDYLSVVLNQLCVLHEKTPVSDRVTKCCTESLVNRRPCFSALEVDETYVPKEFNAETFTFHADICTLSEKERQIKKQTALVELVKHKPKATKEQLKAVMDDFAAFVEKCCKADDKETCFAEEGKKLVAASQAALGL
T2 sequence (P02768 25-609): as above

In the case of `Cc1c(C)c(C)[c-](C)c1C.[Cl][Rh]1[O]c2cccc3ccc[n+]1c23` [RhCp*-HQ], the “conditional stability constant logK'” value ([1]; calculated based on ref 23) is listed as 12.76.
In the case of `Oc1cccc2cccnc12` [8-hydroxyquinoline], the “formal potential E'1/2 of the iron complexes” value [2] is given as −323 mV vs. NHE.
For `Cc1c(C)c(C)[c-](C)c1C.O=C(O)[C@@H]1CCC[NH+]1Cc1cc(Cl)c2ccc[n+]3c2c1[O][Rh]3[Cl].[Cl-]` [RhCp*-HQCl-L-Pro], the IC50 [3] is given as 10 ± 1 µM, the “Selectivity ratio IC50 (Colo205)/IC50 (Colo320)” value [3] is given as 2.66 and the “DG marker displacement constant logKDG'” value [4] is given as 5.6. For the same molecule, the “conditional stability constant logK'” value ([1]; calculated based on ref 12) was 12.98, the “log D7.4” value ([5]; 100 mM chloride) was “+0.10 ± 0.01” and the “quenching constant logKQ'” value [6] was 5.5. The IC50 [7] was 26 ± 5 µM.
For `O=C(O)[C@@H]1CCCN1Cc1cc(Cl)c2cccnc2c1O` [HQCl-L-Pro, reference compound], the IC50 ([8]; 144 h exposure) is given as 4.3 ± 0.1 µM, the “Selectivity ratio IC50 (MES-SA)/IC50 (MES-SA/Dx5)” value ([8]; calculated from IC50 values in Table 4) is given as 5.41 and the IC50 [3] is given as 9 ± 2 µM. For the same molecule, the “Selectivity ratio IC50 (Colo205)/IC50 (Colo320)” value [3] was 2.75, the IC50 [9] was 23 ± 4 µM and the “solubility in water at physiological pH (S7.4)” value [10] was > 10 mM. For the same molecule, the “log D7.4” value ([5]; 4 mM chloride) was “+0.13 ± 0.09”, the “fraction of negatively charged form” value [11] was 36.5% and the “fraction of neutral form” value [11] was 63.5%. For the same molecule, the IC50 [7] was 23 ± 3 µM, the “pKa (NProH+)” value [12] was > 11.5 and the “pKa (OH)” value [12] was 7.76.
In the case of `Oc1c(CN2CCCCC2)ccc2cccnc12` [7-(piperidin-1-ylmethyl)quinolin-8-ol], the “formal potential E'1/2 of the iron complexes” value [2] is given as “+21 mV vs. NHE”.
